The target in experiment [1] is T1, ULK1 (Homo sapiens, UniProt O75385).
T1 sequence (O75385 1-1050): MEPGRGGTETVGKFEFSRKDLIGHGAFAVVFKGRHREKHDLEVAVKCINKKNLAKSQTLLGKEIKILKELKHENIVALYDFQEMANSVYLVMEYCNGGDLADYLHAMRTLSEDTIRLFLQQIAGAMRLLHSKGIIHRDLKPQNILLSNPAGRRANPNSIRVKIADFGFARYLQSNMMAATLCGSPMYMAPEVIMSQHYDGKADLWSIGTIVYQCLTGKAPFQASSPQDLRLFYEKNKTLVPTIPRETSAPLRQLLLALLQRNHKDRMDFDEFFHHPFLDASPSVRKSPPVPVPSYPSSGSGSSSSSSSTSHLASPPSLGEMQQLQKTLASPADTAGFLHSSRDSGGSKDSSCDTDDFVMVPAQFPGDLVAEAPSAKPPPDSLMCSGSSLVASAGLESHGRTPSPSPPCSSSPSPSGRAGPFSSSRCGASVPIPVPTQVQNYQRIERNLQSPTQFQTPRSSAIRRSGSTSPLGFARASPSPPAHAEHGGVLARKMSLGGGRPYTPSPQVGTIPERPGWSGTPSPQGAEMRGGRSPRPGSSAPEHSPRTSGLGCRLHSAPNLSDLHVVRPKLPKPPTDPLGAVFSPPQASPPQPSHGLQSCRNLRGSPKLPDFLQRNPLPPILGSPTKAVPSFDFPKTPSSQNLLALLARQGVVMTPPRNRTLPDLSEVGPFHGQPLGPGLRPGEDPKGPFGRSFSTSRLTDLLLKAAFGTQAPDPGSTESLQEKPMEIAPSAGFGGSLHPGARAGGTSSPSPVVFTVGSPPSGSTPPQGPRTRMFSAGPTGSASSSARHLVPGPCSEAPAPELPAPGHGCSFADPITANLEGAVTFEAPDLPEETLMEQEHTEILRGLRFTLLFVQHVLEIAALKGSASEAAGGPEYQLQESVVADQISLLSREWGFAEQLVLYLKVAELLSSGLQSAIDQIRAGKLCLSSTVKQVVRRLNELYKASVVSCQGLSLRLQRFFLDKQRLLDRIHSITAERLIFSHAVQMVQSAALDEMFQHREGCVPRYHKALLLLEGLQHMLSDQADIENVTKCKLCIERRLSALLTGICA
The experiment is described as follows: biochemical.

Another experiment concerns the target T2, kinase domain of ULK1 (Homo sapiens, UniProt O75385).
T2 sequence (O75385 1-283 limits assumed): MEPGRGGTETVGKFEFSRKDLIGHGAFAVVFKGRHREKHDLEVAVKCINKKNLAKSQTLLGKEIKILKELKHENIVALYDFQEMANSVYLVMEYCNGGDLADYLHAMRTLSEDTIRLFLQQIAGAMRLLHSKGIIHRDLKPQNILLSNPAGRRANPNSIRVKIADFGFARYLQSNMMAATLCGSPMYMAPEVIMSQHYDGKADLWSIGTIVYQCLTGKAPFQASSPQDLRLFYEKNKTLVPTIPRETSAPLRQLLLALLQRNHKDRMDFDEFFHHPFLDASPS
The following applies: binder.

The target of the next experiment is T3, kinase domain of ULK2 (Homo sapiens, UniProt Q8IYT8).
T3 sequence (Q8IYT8 1-276 limits assumed): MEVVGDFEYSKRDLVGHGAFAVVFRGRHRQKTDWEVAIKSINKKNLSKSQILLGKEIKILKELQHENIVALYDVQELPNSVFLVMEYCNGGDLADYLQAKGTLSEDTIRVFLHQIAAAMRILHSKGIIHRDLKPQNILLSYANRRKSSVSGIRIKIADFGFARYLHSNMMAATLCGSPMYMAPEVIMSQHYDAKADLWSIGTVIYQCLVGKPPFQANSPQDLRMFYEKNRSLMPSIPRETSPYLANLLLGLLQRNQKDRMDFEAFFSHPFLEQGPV
The following applies: binder.

In another experiment the target is T4, ULK1 (NanoBRET) (Homo sapiens, UniProt O75385).
T4 sequence (O75385 1-1050): T1 sequence (O75385 1-1050)
As to the kind of experiment: NanoBRET cellular target engagement. Format: cell-based. A general note: BRET reads energy transfer from a luciferase to a nearby fluorophore.

For experiment [2], the target named is T5, ULK2 (Homo sapiens, UniProt Q8IYT8).
T5 sequence (Q8IYT8 1-1036): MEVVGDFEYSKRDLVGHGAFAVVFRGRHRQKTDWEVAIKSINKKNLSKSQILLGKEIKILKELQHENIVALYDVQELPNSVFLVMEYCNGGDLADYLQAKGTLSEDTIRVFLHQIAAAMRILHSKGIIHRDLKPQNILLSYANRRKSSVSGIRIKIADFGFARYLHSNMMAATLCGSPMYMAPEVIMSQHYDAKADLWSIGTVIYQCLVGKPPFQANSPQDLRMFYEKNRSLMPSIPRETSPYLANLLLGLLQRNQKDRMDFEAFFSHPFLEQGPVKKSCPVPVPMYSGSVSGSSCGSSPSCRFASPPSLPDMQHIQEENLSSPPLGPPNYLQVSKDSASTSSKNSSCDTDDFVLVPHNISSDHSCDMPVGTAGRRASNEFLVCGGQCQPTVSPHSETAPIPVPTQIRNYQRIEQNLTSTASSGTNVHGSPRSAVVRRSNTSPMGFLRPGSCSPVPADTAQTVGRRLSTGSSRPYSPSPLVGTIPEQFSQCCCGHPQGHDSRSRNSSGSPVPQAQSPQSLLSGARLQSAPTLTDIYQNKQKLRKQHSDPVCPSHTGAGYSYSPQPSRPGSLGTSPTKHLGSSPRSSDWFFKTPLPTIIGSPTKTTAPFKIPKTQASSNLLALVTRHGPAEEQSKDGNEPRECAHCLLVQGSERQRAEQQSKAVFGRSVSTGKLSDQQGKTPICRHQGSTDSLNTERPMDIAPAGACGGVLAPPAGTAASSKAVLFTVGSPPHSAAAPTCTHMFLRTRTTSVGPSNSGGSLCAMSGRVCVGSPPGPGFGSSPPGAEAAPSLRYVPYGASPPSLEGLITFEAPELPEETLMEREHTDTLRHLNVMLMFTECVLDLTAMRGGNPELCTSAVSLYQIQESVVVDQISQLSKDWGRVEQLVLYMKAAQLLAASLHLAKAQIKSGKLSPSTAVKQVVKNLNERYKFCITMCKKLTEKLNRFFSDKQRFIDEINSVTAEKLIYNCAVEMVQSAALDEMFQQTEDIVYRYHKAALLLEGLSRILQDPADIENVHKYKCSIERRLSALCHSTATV
As to the kind of experiment: biochemical.

Experiment [3] addresses T1, ULK1. As to the kind of experiment: ADP-Glo kinase assay. Format: biochemical. For orientation: In ADP-Glo the light output rises with the ADP produced.
Experiment [4] concerns the target T5, ULK2. The experiment is described as follows: ADP-Glo kinase assay. Format: biochemical.

One may read the IC50 as the point on the concentration scale where inhibition reaches its midpoint. Lower therefore signals inhibition by little substance.

With `CNC(=O)c1ccccc1Nc1nc(Nc2cc(N3CCOCC3)cc(N3CCOCC3)c2)ncc1C(F)(F)F` [6r, 2-(2-(3,5-dimorpholinophenylamino)-5-(trifluoromethyl)pyrimidin-4-ylamino)-N-methylbenzamide], the results for the IC50 against ULK1 [1], against ULK1 (NanoBRET) and on ULK2 [2] were 15 ± 1 nM, 17 nM and 19 ± 3 nM, respectively. Further, the “ULK1 PTS (ºC)” value on kinase domain of ULK1 is 17.28 ± 0.06 °C. Also, the “ULK2 PTS (ºC)” value at kinase domain of ULK2 amounted to 16.70 ± 0.05 °C.
As to `CNC(=O)c1ccccc1Nc1nc(Nc2cc(OC)c(OC)c(OC)c2)ncc1C(F)(F)F` [6p, N-Methyl-2-(5-(trifluoromethyl)-2-(3,4,5-trimethoxyphenylamino)pyrimidin-4-ylamino)benzamide], the IC50 came to 10 nM on ULK1 [3], 7 nM against ULK2 [4] and 10 nM against ULK1 (NanoBRET). At kinase domain of ULK1, the “ULK1 PTS (ºC)” value was 16.50 ± 0.15 °C. The “ULK2 PTS (ºC)” value on kinase domain of ULK2 turned out to be 15.81 ± 0.06 °C.
`CNC(=O)c1ccccc1Nc1nc(Nc2ccc3c(c2)CCC(=O)N3)ncc1Cl` [6e, 2-(5-Chloro-2-(2-oxo-1,2,3,4-tetrahydroquinolin-6-ylamino)pyrimidin-4-ylamino)-N-methylbenzamide]: the IC50 is 22 nM against ULK1 [3] and 1440 nM against ULK2 [4]. Further, the “ULK1 PTS (ºC)” value on kinase domain of ULK1 turned out to be 0.15 ± 0.06 °C. The “ULK2 PTS (ºC)” value at kinase domain of ULK2 stood at 0.43 ± 0.34 °C.
For `CNC(=O)c1ccccc1Nc1nc(Nc2cc(OC)c(OC)c(OC)c2)ncc1Cl` [6o, 2-(5-Chloro-2-(3,4,5-trimethoxyphenylamino)pyrimidin-4-ylamino)-N-methylbenzamide], the IC50 against ULK1 [3] was 8 nM; against ULK1 (NanoBRET), 4.05 nM. The “ULK1 PTS (ºC)” value on kinase domain of ULK1 came to 14.25 ± 0.11 °C. Moreover, the “ULK2 PTS (ºC)” value on kinase domain of ULK2 came to 12.01 ± 0.05 °C.
Turning to `CNC(=O)c1ccccc1Nc1nc(Nc2ccc3c(c2)CCC(=O)N3)ncc1C(F)(F)F` [6d, N-Methyl-2-(2-(2-oxo-1,2,3,4-tetrahydroquinolin-6-ylamino)-5-(trifluoromethyl)pyrimidin-4-ylamino)benzamide], the IC50 is 8 ± 2 nM at ULK1 [1], 172 nM against ULK2 [4] and 103 nM against ULK1 (NanoBRET). Moreover, the “ULK1 PTS (ºC)” value at kinase domain of ULK1 stood at 7.70 ± 0.43 °C. Moreover, the “ULK2 PTS (ºC)” value on kinase domain of ULK2 came out at 3.73 ± 0.81 °C.
As for `CNC(=O)c1ccccc1Nc1ccnc(Nc2cc(OC)c(OC)c(OC)c2)n1` [6q, N-Methyl-2-(2-(3,4,5-trimethoxyphenylamino)pyrimidin-4-ylamino)benzamide], the IC50 on ULK1 [3] is 603 nM; against ULK2 [4], 30000 nM; at ULK2 [2] it was > 3000 nM. Moreover, the “ULK1 PTS (ºC)” value on kinase domain of ULK1 was found to be 5.18 ± 0.17 °C. For the same molecule, the “ULK2 PTS (ºC)” value on kinase domain of ULK2 was 2.71 ± 0.09 °C.
As to `CNC(=O)c1ccccc1Nc1nc(Nc2ccc(N3CCOCC3)cc2OC)ncc1Cl` [6a, 2-(5-Chloro-2-(2-methoxy-4-morpholinophenylamino)pyrimidin-4-ylamino)-N-methylbenzamide], the IC50 against ULK1 [3] was 153 nM; against ULK2 [4], > 3000 nM. For the same molecule, the “ULK1 PTS (ºC)” value at kinase domain of ULK1 was found to be 3.65 ± 0.07 °C. Also, the “ULK2 PTS (ºC)” value at kinase domain of ULK2 is 2.31 ± 0.09 °C.

The record behind these values is doi:10.1101/2025.10.14.682402v1 (biorxiv, 2025).
